According to patent publication US9676771B2, “Compounds for inhibiting drug-resistant strains of HIV-1 integrase” (priority 2013, dated 2017):
Like-named read-outs stand apart in the source and are kept apart here.

Legend:
Format in all cases: cell-based
[1] = tested on: HIV-1 constructs containing mutant IN G140S-Q148H; assay: microbe, parasite or virus in culture; settings: for EC50: Human immunodeficiency virus 1
Procedure, shortened: (§1)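 Single-round infectivity assay using luciferase-reporter pNLNgoMIVR−ΔEnv.LUC virus carrying site-directed integrase mutants, produced in 293 cells. Activity normalized to infectivity without compound; EC50 from regression fit.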

[2] = tested on: HIV-1 constructs containing mutant IN N155H; assay: microbe, parasite or virus in culture; settings: for EC50: Human immunodeficiency virus 1
Procedure, shortened: as §1

[3] = tested on: HIV-1 constructs containing mutant IN Y143R; assay: microbe, parasite or virus in culture; settings: for EC50: Human immunodeficiency virus 1
Procedure, shortened: as §1

[4] = tested on: HIV-1 constructs containing mutant IN T66I; assay: Single-round HIV-1 infectivity assay, IN mutant T66I; settings: Human immunodeficiency virus 1; Table 8; read-out: EC50 (nM, IN mutants) T66I
Description: (§2) Single-Round HIV-1 Infectivity Assay.
(§3) Human embryonyl kidney cell culture cell line 293 was acquired from the American type Culture Collection (ATCC).
(§4) […]. […] The virus-containing supernatants were then harvested, clarified by low-speed centrifugation, filtrated, and diluted for preparation in infection assays. […] After compound incorporation and activation in the cell, 100 μL of virus-stock diluted to achieve a maximum luciferase signal between 0.2 and 1.5 RLUs was added to each well and further incubated at 37° C. for 48 hrs. […] Activity was normalized to infectivity in the absence of target compounds. KaleidaGraph (Synergy Software, Reading, Pa.) was used to perform regression analysis on the data. EC50 values were determined from the fit model.
(§5) pNLNgoMIVR^−ΔEnv.LUC has been described previously (Zhao et al. 2008). The integrase codon reading frame was removed from pNLNgoMIVR^−ΔEnv LUC (between KpnI and SalI sites) and placed between the KpnI and SalI sites of pBluescript II KS+. Using that construct as the wild-type template, we prepared the following HIV-1 Integrase-resistant mutants via the QuikChange II XL (Stratagene, La Jolla, Calif.) site-directed mutagenesis protocol: H51Y, T66I, E92Q, G118R, Y143R, Q148H, Q148K, N155H, R263K, G140S+Q148H, G140A+Q148K, E138K+Q148K, and H51Y+R263K. The following sense with cognate antisense (not shown) oligonucleotides (Integrated DNA Technologies, Coralville, Iowa) were used in the mutagenesis: H51Y, 5′-[…]-3; T66I, 5′-[…]-3′; E92Q, 5′-[…]-3′; G118R, 5′-[…]-3′; E138K, 5′-[…]-3; G140A, 5′-[…]-3; G140S, 5′-[…]-3′; Y143R, 5′-[…]-3′; Q148H, 5′-[…]-3′; Q148K, 5′-[…]-3; N155H, 5′-[…]-3′; R263K 5′-[…]-3′. The double mutation G140S+Q148H was constructed by using the previously generated Q148H mutant and the appropriate oligonucleotide for the 2nd mutation, G140S. The double mutation G140A+Q148K was made by using the Q148K mutant and the appropriate oligonucleotide for the 2nd mutation, G140A. The double mutation E138K+Q148K was made by using the Q148K mutant and the appropriate oligonucleotide for the 2nd mutation, E138K. The double mutation H51Y+R263K was constructed by using the previously generated H51Y mutant and the appropriate oligonucleotides for the 2nd mutation, R263K. The DNA sequence of each construct was verified independently by DNA sequence determination. The mutant integrase coding sequences from pBluescript II KS+ were then subcloned into pNLNgoMIVR^−ΔEnv LUC (between the KpnI and SalI sites) to produce the full-length mutant HIV-1 Integrase constructs. These DNA sequences were additionally checked independently by DNA sequence determination.

[5] = tested on: HIV-1 constructs containing mutant IN E92Q; assay: Single-round HIV-1 infectivity assay, IN mutant E92Q; settings: Human immunodeficiency virus 1; Table 8; read-out: EC50 (nM, IN mutants) E92Q
Description: as §2, §3, §4, §5

[6] = tested on: HIV-1 constructs containing mutant IN H51Y; assay: Single-round HIV-1 infectivity assay, IN mutant H51Y; settings: Human immunodeficiency virus 1; Table 8; read-out: EC50 (nM, IN mutants) H51Y
Description: as §2, §3, §4, §5

[7] = tested on: HIV-1 constructs containing mutant IN H51Y/R263K; assay: Single-round HIV-1 infectivity assay, IN double mutant H51Y/R263K; settings: Human immunodeficiency virus 1; Table 8; read-out: EC50 (nM, IN mutants) H51Y/R263K
Description: as §2, §3, §4, §5

[8] = tested on: HIV-1 constructs containing mutant IN E138K-Q148K; assay: Single-round HIV-1 infectivity assay, IN double mutant E138K-Q148K
Description: as §2, §3, §4
pNLNgoMIVR^−ΔEnv.LUC has been described previously (Zhao et al. 2008). The integrase codon reading frame was removed from pNLNgoMIVR^−ΔEnv LUC (between KpnI and SalI sites) and placed between the KpnI and SalI sites of pBluescript II KS+. Using that construct as the wild-type template, we prepared the following HIV-1 Integrase-resistant mutants via the QuikChange II XL (Stratagene, La Jolla, Calif.) site-directed mutagenesis protocol: H51Y, T66I, E92Q, G118R, Y143R, Q148H, Q148K, N155H, R263K, G140S+Q148H, G140A+Q148K, E138K+Q148K, and H51Y+R263K. […]

HIV-1 WT IN = assay: High growth serum assays in cells (WT)
[9] = Table 8, read-out: EC50 (nM, IN mutants) G140S/Q148H
[10] = Table 8, read-out: EC50 (nM, IN mutants) N155H
[11] = Table 8, read-out: EC50 (nM, IN mutants) Y143R
[12] = Table 3, G140S-Q148H double mutant, read-out: EC50 (nM, IN Mutants) SH
[13] = Table 3, read-out: EC50 (nM, IN Mutants) N155H
[14] = Table 3, read-out: EC50 (nM, IN Mutants) Y143R
[15] = Human immunodeficiency virus 1, read-out: EC50 (nM), Table 9, 10% FBS
[16] = Human immunodeficiency virus 1, read-out: EC50 (nM), Table 9, 15% FBS

Row | SMILES | EC50 [1, 9] [nM] | EC50 [2, 10] [nM] | EC50 [3, 11] [nM] | EC50 [4] [nM] | EC50 [5] [nM] | EC50 [6] [nM] | EC50 [7] [nM] | Integrase Mutants SH (G140S-Q148H), fold-change in EC50 relative to WT [1] [x] | EC50 [1, 12] [nM] | Integrase Mutants N155H, fold-change in EC50 relative to WT [2] [x] | EC50 [2, 13] [nM] | Integrase Mutants Y143R, fold-change in EC50 relative to WT [3] [x] | EC50 [3, 14] [nM] | Integrase Mutants KK (E138K-Q148K), fold-change in EC50 relative to WT [8] [x] | EC50 (HIV-1 WT IN; [15]) [nM] | EC50 (HIV-1 WT IN; [16]) [nM]
1 | C[C@@H]1CCO[C@H]2Cn3cc(C(=O)NCc4ccc(F)cc4F)c(=O)c(O)c3C(=O)N12 [DTG, dolutegravir, reference compound] | 5.8 | 3.6 | 4.3 | 0.9 | 2.3 | 3.2 | 16 | – | – | – | – | – | – | – | – | –
2 | O=C(NCc1ccc(F)cc1F)c1c(O)c2cccnc2n(O)c1=O [XZ351, N-(2,4-difluorobenzyl)-1,4-dihydroxy-2-oxo-1,2-dihydro-1,8-naphthyridine-3-carboxamide] | – | – | – | – | – | – | – | 50 | 308 ± 125 | 5 | 30.5 ± 7.76 | 2 | 11.3 ± 1.93 | 32 | – | –
3 | COC(=O)CNc1c(C(=O)NCc2ccc(F)cc2F)c(=O)n(O)c2ncccc12 [XZ379, Methyl 2-((3-((2,4-difluorobenzyl)carbamoyl)-1-hydroxy-2-oxo-1,2-dihydro-1,8-naphthyridin-4-yl)amino)acetate] | – | – | – | – | – | – | – | – | 35.5 ± 15.9 | – | 19 ± 6.9 | – | 4.6 ± 2.2 | – | 5 | 1
4 | CC(=O)OCCNc1c(C(=O)NCc2ccc(F)cc2F)c(=O)n(O)c2ncccc12 [XZ402, 2-((3-((2,4-difluorobenzyl)carbamoyl)-1-hydroxy-2-oxo-1,2-dihydro-1,8-naphthyridin-4-yl)amino)ethyl acetate] | – | – | – | – | – | – | – | – | 35.1 ± 13.6 | – | 3.1 ± 0.3 | – | 4.8 ± 2.9 | – | 2.2 ± 0.3 | 1
5 | Nc1c(C(=O)NCc2ccc(F)cc2F)c(=O)n(O)c2ncc(CCCCCO)cc12 [XZ419, 4-Amino-N-(2,4-difluorobenzyl)-1-hydroxy-6-(5-hydroxypentyl)-2-oxo-1,2-dihydro-1,8-naphthyridine-3-carboxamide] | 6.9 | 2.4 | 3 | 0.93 | 3.8 | 3.8 | 2.6 | – | – | – | – | – | – | – | 0.93 ± 0.2 | 2.1 ± 0.4
6 | Nc1c(C(=O)NCc2ccc(F)cc2F)c(=O)n(O)c2ncc(CCCO)cc12 [XZ423, 4-Amino-N-(2,4-difluorobenzyl)-1-hydroxy-6-(3-hydroxypropyl)-2-oxo-1,2-dihydro-1,8-naphthyridine-3-carboxamide] | 13.4 | 8.5 | 2.8 | 1.1 | 4.8 ± 2 | 2.6 | 14.7 | – | – | – | – | – | – | – | – | –
7 | CC(=O)OCCCc1cnc2c(c1)c(N)c(C(=O)NCc1ccc(F)cc1F)c(=O)n2O [XZ424, 3-(5-Amino-6-((2,4-difluorobenzyl)carbamoyl)-8-hydroxy-7-oxo-7,8-dihydro-1,8-naphthyridin-3-yl)propyl acetate] | 13 | 5.4 | 2.93 | 0.75 | 1.2 | 0.8 | 3.9 | – | – | – | – | – | – | – | – | –
8 | Nc1c(C(=O)NCc2ccc(F)cc2F)c(=O)n(O)c2ncc(CCCCCCO)cc12 [XZ426, 4-Amino-N-(2,4-difluorobenzyl)-1-hydroxy-6-(6-hydroxyhexyl)-2-oxo-1,2-dihydro-1,8-naphthyridine-3-carboxamide] | 9.4 | 2.7 | 2.1 | 0.5 | 0.74 | 1.6 | 5.2 | – | – | – | – | – | – | – | 0.8 ± 0.2 | –
9 | Nc1c(C(=O)NCc2ccc(F)cc2F)c(=O)n(O)c2ncc(CCCCCCCCO)cc12 [XZ433, 4-Amino-N-(2,4-difluorobenzyl)-1-hydroxy-6-(8-hydroxyoctyl)-2-oxo-1,2-dihydro-1,8-naphthyridine-3-carboxamide] | 7.7 | 6.5 | 3.2 | 1.7 | 2.6 | 4.8 | 22.4 | – | – | – | – | – | – | – | – | –
10 | COC(=O)CCc1cnc2c(c1)c(N)c(C(=O)NCc1ccc(F)cc1F)c(=O)n2O [XZ434, Methyl 3-(5-amino-6-((2,4-difluorobenzyl)carbamoyl)-8-hydroxy-7-oxo-7,8-dihydro-1,8-naphthyridin-3-yl)propanoate] | 5.3 | 2.3 | 0.67 | 0.53 | 2 ± 1.1 | 0.63 | 2.4 | – | – | – | – | – | – | – | 0.62 ± 0.2 | 0.6
11 | O=C(NCc1ccc(F)cc1F)c1c(NCCO)c2cc(CCCCCO)cnc2n(O)c1=O [XZ437, N-(2,4-Difluorobenzyl)-1-hydroxy-4-((2-hydroxyethyl)amino)-6-(5-hydroxypentyl)-2-oxo-1,2-dihydro-1,8-naphthyridine-3-carboxamide] | 15.5 | 15 | 11.6 | 1.9 | 6.5 | 10.8 | 30.9 | – | – | – | – | – | – | – | – | –
12 | COC(=O)CCc1cnc2c(c1)c(NCCO)c(C(=O)NCc1ccc(F)cc1F)c(=O)n2O [XZ438, Methyl 3-(6-((2,4-difluorobenzyl)carbamoyl)-8-hydroxy-5-((2-hydroxyethyl)amino)-7-oxo-7,8-dihydro-1,8-naphthyridin-3-yl)propanoate] | 15.9 | 3.9 | 3.8 | 0.62 | 2.7 | 6.9 | 2.5 | – | – | – | – | – | – | – | – | –
13 | O=C(NCc1ccc(F)cc1F)c1c(O)c2c(CO)ccnc2n(O)c1=O [XZ440, N-(2,4-Difluorobenzyl)-1,4-dihydroxy-5-(hydroxymethyl)-2-oxo-1,2-dihydro-1,8-naphthyridine-3-carboxamide] | 14.7 | 14.9 | 2.6 | 1.4 | 4 ± 0.6 | 5 | 9 ± 0.6 | – | – | – | – | – | – | – | – | –
